Six compounds from patent US4367232A, “Piperidine derivatives” (Fordonal, S.A., priority 1976, dated 1983) can be followed below.

Common to all, as to format: in vivo
For experiment [1], the system named is apomorphineinduced gnawing behaviour. Briefly: Inhibition of apomorphine-induced gnawing behaviour in the rat. To be noted: oral, approximate ED50, read-out: Anti-apomorphine: approximate oral ED50 value for inhibition of apomorphineinduced gnawing behaviour. The text has this: (§1) Standard pharmaceutical tests have been run with mice and rats using compounds of this invention. The instant compounds have been compared with Clebopride hydrochloride, i.e., N-(1-benzylpiperid-4-yl)-2-methoxy-4-amino-5-chlorobenzamide hydrochloride, which is disclosed in co-pending U.S. patent application Ser. No. 558,908 filed Mar. 17, 1975, incorporated herein by reference.
^(b) Approximate oral ED50 value for inhibition of
apomorphineinduced gnawing behaviour in the rat.

The test system of experiment [2] is food intake (spaghetti). The experiment can be described thus: Anorexia: inhibition of food intake (spaghetti) in screening test in the mouse. The settings on record: 10 mg kg^-1 p.os. The procedure: as §1
^(c) Percentage inhibition of food intake (spaghetti) in screening
test at 10 mg kg^-1 p.os. in the mouse.

The test system of experiment [3] is stomach emptying. Briefly: Stomach emptying in the rat. The settings on record: 0.3, 1.0 or 3.0 mg kg^-1 i.p.
From the text: as §1
^(d) Active at 0.3 (+++), 1.0 (++) or 3.0 (+) mg kg^-1 i.p. in
causing significant stomach emptying in the rat.

Regarding `COc1cc(N)c(Cl)cc1C(=O)N(C)C1CCN(C(C)c2ccccc2)CC1` (stereo not shown) [R3'=CH3; R7'=CH3, N-methyl-N-[1-(1-phenylethyl)piperid-4-yl]-2-methoxy-4-amino-5-chlorobenzamide], in experiment [1], the ED50 – broadly, the dose at which the effect has come halfway, by size or by number of responders – is more than 300 mg/kg. Moreover, the “Anorexia: percentage inhibition of food intake (spaghetti)” value (“Anorexia: percentage inhibition” below) in experiment [2] amounted to 0%. In addition, the Stomach emptying in experiment [3] turned out to be 0.
For the compound `CCN(C(=O)c1cc(Cl)c(N)cc1OC)C1CCN(Cc2ccccc2)CC1.Cl` [R3'=H; R7'=C2H5, N-ethyl-N-(1-benzylpiperid-4-yl)-2-methoxy-4-amino-5-chlorobenzamide hydrochloride], the ED50 in experiment [1] is approximately 300 mg/kg. Also, the “Anorexia: percentage inhibition” value in experiment [2] was 0%.
On to `COc1cc(N)c(Cl)cc1C(=O)N(C)C1CCN(Cc2ccccc2)CC1.Cl` [R3'=H; R7'=CH3, N-methyl-N-(1-benzylpiperid-4-yl)-2-methoxy-4-amino-5-chlorobenzamide hydrochloride], for which the ED50 in experiment [1] is more than 300 mg/kg. Further, the “Anorexia: percentage inhibition” value in experiment [2] came to 0%.
The matching figures for `COc1cc(N)c(Cl)cc1C(=O)NC1CCN(Cc2ccccc2)CC1C` (stereo not shown) [R5'=3-Me; R7'=H, N-(1-benzyl-3-methylpiperid-4-yl)-2-methoxy-4-amino-5-chlorobenzamide]: 58 mg/kg and 34%.
With `COc1cc(N)c(Cl)cc1C(=O)NC1CCN(Cc2ccccc2)CC1.Cl` [Clebopride hydrochloride, N-(1-benzylpiperid-4-yl)-2-methoxy-4-amino-5-chlorobenzamide hydrochloride, reference compound], the ED50 in experiment [1] stood at 2.5 mg/kg. For the same compound, the “Anorexia: percentage inhibition” value in experiment [2] amounted to 84%.
Take `COc1cc(N)c(Cl)cc1C(=O)NC1CC(C)N(Cc2ccccc2)C(C)C1` (stereo not shown) [R5'=2-Me; R6'=6-Me; R7'=H, N-(1-benzyl-2,6-dimethylpiperid-4-yl)-2-methoxy-4-amino-5-chlorobenzamide]: in experiment [1], the ED50 is approximately 100 mg/kg. The “Anorexia: percentage inhibition” value in experiment [2] came to 89%.
